Reference: US20230339896A1, “HPK1 INHIBITORS AND USES THEREOF” (QILU REGOR THERAPEUTICS INC., priority 2020, published 2023)

Assays:
[1] = Metabolic stability in liver microsomes, rat (RLM); assay type: in vitro ADME, Sprague Dawley Rat; details: 1 µM compound, NADPH; for half-life at 1 µM: Sprague Dawley, rat, liver microsomes, pH 7.4, 0.5 mg/mL protein, read-out: Metabolic Stability T½ (min), RLM
Description: This assay is for determining the stability of test compound in liver microsomes. The study will be conducted in accordance with International Bioethical Standards “World Medical Association Declaration of
Human, Sprague Dawley Rat, CD-1 mouse, Beagle Dog and Cynomolgus Monkey Liver Microsomes samples purchased from BD Gentest or RILD.
0.1 M Potassium phosphate buffer, pH 7.4: • Buffer A: 1.0 L of 0.1 M monobasic Potassium Phosphate buffer containing 1.0 mM EDTA • Buffer B: 1.0 L of 0.1 M Dibasic Potassium Phosphate buffer containing 1.0 mM EDTA • Buffer C (K-phosphate buffer): 0.1 M Potassium Phosphate buffer, 1.0 mM EDTA, pH 7.4 by titrating 700 mL of buffer B with buffer A while monitoring the pH meter
• Prepare 3× test compound or positive control solutions: 500 µM spiking solution: add 10 µL of 10 mM DMSO stock solution into 190 µL ACN. • 1.5 µM spiking solution in microsomes (0.75 mg/mL): add 1.5 µL of 500 µM spiking solution and 18.75 µL of 20 mg/mL liver microsomes into 479.75 µL of K-phosphate buffer.
Add 30 µL of 1.5 µM spiking solution containing 0.75 mg/ml microsomes solution to the wells designated for 45 min, 30 min, 15 min, 5 min and 0 min. Pre-incubate the plate at 37° C. for 5 minutes.
Add 15 µL of NADPH stock solution (6 mM) to all of the wells, and start timing. Immediately, add 135 µL of ACN containing IS to the wells designated as Time 0.
At 5 min, 15 min, 30 min and 45 min, add 135 µL of ACN containing IS to the wells, respectively.
After quenching, centrifuge the reaction mixtures at 3220 x g for 10 min.
Transfer 50 µL of the supernatant from each well into a 96-well sample plate containing 50 µL of ultra pure water (Millipore) for LC/MS analysis.
The % parent remaining at each incubation time point is calculated by comparing to the peak area ratio (compound peak area/internal standard peak area) at T0 (0 minute incubation). The ln peak area ratio is plotted against time and the gradient of the line is determined. The half-life and metabolism of compounds is calculated based upon a natural log linear regression of the relative peak areas vs time. The half-life and intrinsic clearance (Clint) in microsomes are calculated using the equations below. • In Vitro T ½ (min) = 0.693/Elimination rate of constant (k) • Clint (µL/min/mg of microsomal protein) = (0.693 / In Vitro T ½) (Incubation Volume/ mg of microsomes)

[2] = MDCK permeability assay; assay type: in vitro ADME; details: dog, MDCK, pH 7.4
Description: This assay is for generating screening data only, and to estimate the intestinal absorption potential of drug candidates. The study will be conducted in accordance with International Bioethical Standards “World MedicalAssociation Declaration of Helsinki.
Cell line: • ▪ MDCK (ATCC), or MDCK MDR1 (NKI).
Prepare donor buffer: • For A-to-B direction: • ✔ HBSS buffer with 0.3% DMSO and 5 µM Lucifer Yellow (LY): add 150 µL DMSO and 125 µL LY (2 mM) into 50 mL HBSS buffer (pH 7.4). • ✔ HBSS buffer with 0.1% DMSO and 5 µM Lucifer Yellow (LY): add 50 µL DMSO and 125 µL LY (2 mM) into 50 mL HBSS buffer (pH 7.4). • ✔ HBSS buffer with 5 µM Lucifer Yellow (LY): add 125 µL LY (2 mM) into 50 mL HBSS buffer (pH 7.4). • For B-to-A direction: • ✔ HBSS buffer with 0.3% DMSO: add 150 µL DMSO into 50 mL HBSS buffer (pH 7.4). • ✔ HBSS buffer with 0.1% DMSO: add 50 µL DMSO into 50 mL HBSS buffer (pH 7.4). • ✔ HBSS buffer without DMSO. • Prepare receiver buffer: • For A-to-B direction: Prepare HBSS buffer with 0.4% DMSO: add 200 µL DMSO into 50 mL HBSS buffer (pH 7.4) • For B-to-A direction: Prepare HBSS buffer with 0.4% DMSO and 5 µM LY: add 200 uL DMSO and 125 µL LY (2 mM) into 50 mL HBSS buffer (pH 7.4) • Controls: • Prepare 10 mM stock concentrations of compound in DMSO and Lucifer Yellow in assay buffer using the following formula: • (Actual Weight/Molecular Weight)/mL solvent =10 mM • Reference compound: Erythromycin, Metoprolol, Atenolol
MDCK assay plates are seeded 3-4 days prior to running the assay. 24-well plates are seeded at a cell density of 0.88 × 10^5/well in a 400 µL apical chamber volume (2.2×10^5 /mL) with a 25 mL volume of growth medium to the 24-well basal chamber. Assay plates are generally provided with a growth medium change 24 hours prior to the assay.
MDCK assay plates are rinsed with HBSS+ buffer prior to running the assay. After rinsing, fresh HBSS+ is added to the assay plate in a 400 µL apical chamber volume and a 0.8 mL HBSS+ basal chamber volume. Measure the electrical resistance across the monolayer using the Millicell ERS system ohm meter. (The cells will be used if TEER is higher than 100 ohm*cm^2).
Preparation of the cell plates: • Remove the buffer from the apical side and basolateral side. Add 600 µL of donor solution (for A-to-B) or 500 µL of receiver solution (for B-to-A) to the apical wells based on plate map. • A fresh basolateral plate is prepared by adding 800 µL of receiver solution (for A-to-B) or 900 µL of donor solution (B-to-A) to the well of a new 24-well plate. • Put the apical plate and basolateral plate into 37° C. incubator.
Preparation of analytical plate: • After 5 min, transfer 100 µL of samples from all donors (for both A-to-B and B-to-A) into appropriate wells of a sample plate for D0. And transfer 100 µL of samples from all apical chambers (the donor of A-to-B and receiver of B-to-A) into appropriate wells of a microplate for Lucifer Yellow D0 (D0 LY) • Lay the apical plate to the basolateral plate to start transport process. • At 90 min, separate the apical and basolateral plates and transfer 100 µL of samples from all donors (for both A-to-B and B-to-A) into appropriate wells of a new sample plate for D90, and transfer 200 µL of samples from all receivers into appropriate wells of a sample plate for R90. Transfer 100 µL of samples from all basolateral chambers (receiver of A-to-B and donor of B-to-A) into appropriate wells of a new microplate for Lucifer Yellow R90 (R90 LY). • Determine LY permeability by reading D0 LY and R90 LY at an excitation wavelength of 485 nm and an emission wavelength of 535 nm using a fluorescent plate reader. • Sample preparation: • For receiver solution: 60 µL of sample + 60 µL ACN with IS (200 ng/mL Osalmid) • For donor solution: 6 µL of sample + 54 µL 0.4% DMSO/HBSS + 60 µL ACN with IS (200 ng/mL Osalmid) […]

SMILES | half-life at 1 µM [1] | Papp A→B at 90 min [2] | Papp B→A at 90 min [2] | Metabolic Stability T½ (min), RLM ([1]; 0.5 mg/mL protein)
COc1cc2c(cc1Nc1ncc(Cl)c(N3CC(CC(=O)O)c4ccccc43)n1)CN(C)CC2 (stereo not drawn) [Compound 8, reference compound] | 48.2 min | 4.5 ×10⁻⁶ cm/s | 38.5 ×10⁻⁶ cm/s | 
COc1cc2c(cc1Nc1ncc(Cl)c(N3CC(C(=O)O)c4ccccc43)n1)CN(C)CC2 (stereo not drawn) [Compound 7, reference compound] | 4260 min | 3.2 ×10⁻⁶ cm/s | 9.4 ×10⁻⁶ cm/s | 
COc1cc2c(cc1Nc1ncc(Cl)c(N3CC(C)(CC(=O)O)c4ccc(F)cc43)n1)CN(C)CC2 (stereo not drawn) [Compound 10, reference compound] | 17 min | 2.6 ×10⁻⁶ cm/s | 58.9 ×10⁻⁶ cm/s | 
COc1cc2c(cc1Nc1ncc(Cl)c(N3CC(C)(CC(=O)O)c4ccccc43)n1)CN(C)CC2 (stereo not drawn) [Example 1, 2-(1-(5-chloro-2-((6-methoxy-2-methyl-1,2,3,4-tetrahydroisoquinolin-7-yl)amino)pyrimidin-4-yl)-3-methylindolin-3-yl)acetic acid] |  | 2.2 ×10⁻⁶ cm/s | 47.8 ×10⁻⁶ cm/s | 

The next lines start with the values.

half-life at 1 µM [1] | Papp A→B at 90 min [2] | Papp B→A at 90 min [2] | Metabolic Stability T½ (min), RLM ([1]; 0.5 mg/mL protein) | SMILES
 | 7.7 ×10⁻⁶ cm/s | 41.1 ×10⁻⁶ cm/s |  | CN1CCc2cc(F)c(Nc3ncc(Cl)c(N4CC(C)(CC(=O)O)c5ccccc54)n3)cc2C1 (stereo not drawn) [Example 4, 2-(1-(5-chloro-2-((6-fluoro-2-methyl-1,2,3,4-tetrahydroisoquinolin-7-yl)amino)pyrimidin-4-yl)-3-methylindolin-3-yl)acetic acid]
 |  |  | RLM: 23 min | CN1CCc2cc(F)c(Nc3ncc(Cl)c(N4C[C@](C)(CC(=O)O)c5ccccc54)n3)cc2C1 (single isomer, unassigned) [Example 5, (R)-2-[1-[5-chloro-2-[(6-fluoro-2-methyl-3,4-dihydro-1H-isoquinolin-7-yl)amino]pyrimidin-4-yl]-3-methyl-indolin-3-yl]acetic acid or (S)-2-[1-[5-chloro-2-[(6-fluoro-2-methyl-3,4-dihydro-1H-isoquinolin-7-yl)amino]pyrimidin-4-yl]-3-methyl-indolin-3-yl]acetic acid]
38.4 min |  |  |  | COc1cc2c(cc1Nc1ncc(Cl)c(N3CC(C)(CC(=O)O)c4ccccc43)n1)CN(C)CC2 (single isomer, unassigned) [Example 2, (R)-2-(1-(5-chloro-2-((6-methoxy-2-methyl-1,2,3,4-tetrahydroisoquinolin-7-yl)amino)pyrimidin-4-yl)-3-methylindolin-3-yl)acetic acid or (S)-2-(1-(5-chloro-2-((6-methoxy-2-methyl-1,2,3,4-tetrahydroisoquinolin-7-yl)amino)pyrimidin-4-yl)-3-methylindolin-3-yl)acetic acid]
